From ChEMBL document CHEMBL5137034, “Chemical space exploration around indolylarylsulfone scaffold led to a novel class of highly active HIV-1 NNRTIs with spiro structural features” (Eur J Med Chem, 2022)

Legend:
[1] = Cytotoxicity against human MT4 cells assessed as reduction in cell viability incubated for 5 to 7 days by MTT assay; format: toxicity, cell-based; settings: time 5-7 day
[2] = Selectivity index, ratio of CC50 for cytotoxicity against human MT4 cells to EC50 for antiviral activity against wildtype HIV-1 3B infected in human MT4 cells; format: toxicity, cell-based; settings: read-out: Ratio CC50/EC50
[3] = tested on: Human immunodeficiency virus 1; test: Antiviral activity against wild type HIV-1 3B infected in human MT4 cells assessed as reduction in virus induced cytotoxicity incubated for 5 to 7 days by MTT assay; format: functional, organism-based; settings: Human immunodeficiency virus 1, 3B
[4] = tested on: Human immunodeficiency virus 1; test: Antiviral activity against HIV-1 harboring Y188L mutant infected in human MT4 cells assessed as reduction in virus induced cytotoxicity incubated for 5 to 7 days by MTT assay; format: functional, organism-based; settings: Human immunodeficiency virus 1, MT4
[5] = tested on: Human immunodeficiency virus 1; test: Antiviral activity against HIV-1 RES056 infected in human MT4 cells assessed as reduction in virus induced cytotoxicity incubated for 5 to 7 days by MTT assay; format: functional, organism-based; settings: Human immunodeficiency virus 1, RES056, MT4
[6] = tested on: Human immunodeficiency virus 1; test: Antiviral activity against HIV-1 harboring E138K mutant infected in human MT4 cells assessed as reduction in virus induced cytotoxicity incubated for 5 to 7 days by MTT assay; format: functional, organism-based; settings: Human immunodeficiency virus 1, MT4
[7] = tested on: Human immunodeficiency virus 1; test: Antiviral activity against HIV-1 harboring K103N mutant infected in human MT4 cells assessed as reduction in virus induced cytotoxicity incubated for 5 to 7 days by MTT assay; format: functional, organism-based; settings: Human immunodeficiency virus 1, MT4
[8] = tested on: Human immunodeficiency virus 1; test: Antiviral activity against HIV-1 harboring Y181C mutant infected in human MT4 cells assessed as reduction in virus induced cytotoxicity incubated for 5 to 7 days by MTT assay; format: functional, organism-based; settings: Human immunodeficiency virus 1, MT4
[9] = tested on: Human immunodeficiency virus 1; test: Antiviral activity against HIV-1 harboring F227L/V106A double mutant infected in human MT4 cells assessed as reduction in virus induced cytotoxicity incubated for 5 to 7 days by MTT assay; format: functional, organism-based; settings: Human immunodeficiency virus 1, MT4
[10] = tested on: Human immunodeficiency virus 1; test: Antiviral activity against HIV-1 harboring L100I mutant infected in human MT4 cells assessed as reduction in virus induced cytotoxicity incubated for 5 to 7 days by MTT assay; format: functional, organism-based; settings: Human immunodeficiency virus 1, MT4
[11] = molecular target: Human immunodeficiency virus type 1 reverse transcriptase (Human immunodeficiency virus 1, UniProt Q72547); test: Inhibition of wild type HIV-1 reverse transcriptase assessed as reduction of biotin-dUTP incorporation into […] using ABTS as substrate incubated for 1 hrs by ELISA analysis
[12] = tested on: Human immunodeficiency virus 1; test: Potency index, ratio of Nevirapine EC50 to test compound EC50 for antiviral activity against wild type HIV-1 3B infected in human MT4 cells assessed as reduction in virus induced cytotoxicity incubated for 5 to 7 days by MTT assay; format: functional; settings: time 5-7 day
[13] = tested on: Human immunodeficiency virus 1; test: Potency index, ratio of Zidovudine EC50 to test compound EC50 for antiviral activity against wild type HIV-1 3B infected in human MT4 cells assessed as reduction in virus induced cytotoxicity incubated for 5 to 7 days by MTT assay; format: functional; settings: time 5-7 day
[14] = tested on: Human immunodeficiency virus 1; test: Potency index, ratio of 5-chloro-3-(m-tolylsulfonyl)-1H-indole-2-carboxamide EC50 to test compound EC50 for antiviral activity against HIV-1 harboring E138K mutant infected in human MT4 cells assessed as reduction in virus induced cytotoxicity incubated for 5 to 7 days by MTT assay; format: functional; settings: time 5-7 day

| SMILES | CC50 [1] | selectivity ratio [2] | EC50 [3] | EC50 [4] | EC50 [5] | EC50 [6] | EC50 [7] | EC50 [8] | EC50 [9] | EC50 [10] | IC50 [11] | Ratio EC50 [12] | Ratio EC50 [13] | Ratio EC50 [14] |
| --- | --- | --- | --- | --- | --- | --- | --- | --- | --- | --- | --- | --- | --- | --- |
| Cc1cc(C)cc(S(=O)(=O)c2c(C(=O)NC3CC4(CCNCC4)C3)[nH]c3ccc(Cl)cc23)c1 | 24200 nM | 493 | 49 nM | – | – | – | – | – | – | – | – | – | – | – |
| O=C1Nc2ccc(Cl)cc2[C@@](C#CC2CC2)(C(F)(F)F)O1 [EFAVIRENZ] | > 6330 nM | – | 3.2 nM | 89 nM | 105 nM | […] | 97 nM | – | – | – | – | – | – | – |
| Cc1cc(C)cc(S(=O)(=O)c2c(C(=O)NC3CC4(CCN(S(C)(=O)=O)CC4)C3)[nH]c3ccc(Cl)cc23)c1 | > 222000 nM | > 10300 | 21 nM | > 191000 nM | > 222000 nM | 100 nM | 440 nM | 970 nM | 1290 nM | 250 nM | – | – | – | – |
| Cc1cc(C)cc(S(=O)(=O)c2c(C(=O)NC3CC4(CCN(CC(N)=O)CC4)C3)[nH]c3ccc(Cl)cc23)c1 | 3610 nM | 367 | 9.8 nM | 1290 nM | > 3610 nM | 200 nM | 150 nM | 850 nM | 480 nM | 180 nM | – | – | – | – |
| Cc1cc(C)cc(S(=O)(=O)c2c(C(=O)NC3CC4(C3)CN(CC(N)=O)C4)[nH]c3ccc(Cl)cc23)c1 | 6080 nM | 526 | 11 nM | 1280 nM | ≥ 5770 nM | 74 nM | 140 nM | 390 nM | 500 nM | 100 nM | – | – | – | – |
| Cc1cc(C)cc(S(=O)(=O)c2c(C(=O)NC3CC4(CCN(CC(N)=O)C4)C3)[nH]c3ccc(Cl)cc23)c1 (centres undefined) | 3700 nM | 328 | 11 nM | 1420 nM | > 3700 nM | 72 nM | 190 nM | 420 nM | 420 nM | 130 nM | 130 nM | – | – | – |
| Cc1cc(C)cc(S(=O)(=O)c2c(C(=O)NC3CC4(CCNC4)C3)[nH]c3ccc(Cl)cc23)c1 (centres undefined) | 25200 nM | 664 | 38 nM | – | – | – | – | – | – | – | – | – | – | – |
| Cc1cc(C)cc(S(=O)(=O)c2c(C(=O)NC3CC4(CCN(Cc5n[nH]c(=O)n5C)CC4)C3)[nH]c3ccc(Cl)cc23)c1 | 178000 nM | 8350 | 22 nM | 8070 nM | > 178000 nM | 170 nM | 570 nM | 940 nM | 1420 nM | 270 nM | – | – | – | – |
| Cc1cc(C)cc(S(=O)(=O)c2c(C(=O)NC3CC4(CCN(C(=O)OC(C)(C)C)CC4)C3)[nH]c3ccc(Cl)cc23)c1 | 133000 nM | 685 | 190 nM | – | – | – | – | – | – | – | – | – | – | – |
| Cc1cc(C)cc(S(=O)(=O)c2c(C(=O)NC3CC4(CCN(Cc5n[nH]c(=O)n5C)C4)C3)[nH]c3ccc(Cl)cc23)c1 (centres undefined) | > 214000 nM | > 21600 | 9.9 nM | 1460 nM | 133000 nM | 45 nM | 140 nM | 210 nM | 270 nM | 58 nM | – | 16 | 2 | – |
| Cc1cc(C)cc(S(=O)(=O)c2c(C(N)=O)[nH]c3ccc(Cl)cc23)c1 | – | 2160 | 4.1 nM | 1100 nM | 1800 nM | 900 nM | 17 nM | 39 nM | 47 nM | 15 nM | 15 nM | – | – | – |
| Cc1cc(C)cc(S(=O)(=O)c2c(C(=O)NC3CC4(CCN(C(=O)OC(C)(C)C)C4)C3)[nH]c3ccc(Cl)cc23)c1 (centres undefined) | 171000 nM | 1470 | 120 nM | – | – | – | – | – | – | – | – | – | – | – |
| Cc1cc(C#N)cc(C)c1Oc1nc(Nc2ccc(C#N)cc2)nc(N)c1Br [ETRAVIRINE] | > 4590 nM | > 1570 | – | 15 nM | 35 nM | – | – | – | 16 nM | 9 nM | – | – | – | – |
| Cc1cc(C)cc(S(=O)(=O)c2c(C(=O)NC3CC4(C3)CN(C(=O)OC(C)(C)C)C4)[nH]c3ccc(Cl)cc23)c1 | > 224000 nM | > 3220 | 70 nM | – | – | – | – | – | – | – | – | – | – | – |
| Cc1ccnc2c1NC(=O)c1cccnc1N2C1CC1 [NEVIRAPINE] | > 15000 nM | – | – | 4420 nM | 2220 nM | 158 nM | 3550 nM | 3780 nM | 3540 nM | – | – | – | – | – |
| Cc1cc(C)cc(S(=O)(=O)c2c(C(=O)NC3CC4(C3)CN(Cc3n[nH]c(=O)n3C)C4)[nH]c3ccc(Cl)cc23)c1 | 65600 nM | 12400 | 5.3 nM | 560 nM | 7450 nM | 40 nM | 56 nM | 250 nM | 230 nM | 47 nM | 170 nM | 30 | 4 | 23 |
| Cc1cc(C)cc(S(=O)(=O)c2c(C(=O)NC3CC4(CCN(S(C)(=O)=O)C4)C3)[nH]c3ccc(Cl)cc23)c1 (centres undefined) | 205000 nM | 16500 | 12 nM | 1930 nM | > 205000 nM | 69 nM | 330 nM | 330 nM | 600 nM | 110 nM | – | – | – | – |
| Cc1cc(C)cc(S(=O)(=O)c2c(C(=O)NC3CC4(C3)CN(S(C)(=O)=O)C4)[nH]c3ccc(Cl)cc23)c1 | > 233000 nM | > 20900 | 11 nM | 1760 nM | ≥ 12800 nM | 110 nM | 210 nM | 470 nM | 410 nM | 120 nM | 120 nM | – | – | – |
| Cc1cc(C)cc(S(=O)(=O)c2c(C(=O)NC3CC4(CNC4)C3)[nH]c3ccc(Cl)cc23)c1 | 28600 nM | 676 | 41 nM | – | – | – | – | – | – | – | – | – | – | – |
| Cc1cn([C@H]2C[C@H](N=[N+]=[N-])[C@@H](CO)O2)c(=O)[nH]c1=O [ZIDOVUDINE] | > 7480 nM | > 352 | 21 nM | 4 nM | 10 nM | 7 nM | – | 5 nM | 4 nM | 5 nM | – | – | – | – |
